Source: patent US20240060131A1, “METHOD FOR IDENTIFYING AND/OR REGULATING SENESCENCE” (INSTITUTE OF ZOOLOGY, CHINESE ACADEMY OF SCIENCES, priority 2020, published 2024)

Key:
WS hMPC = experiment: Ki67 and SA-β-gal staining of WS hMPC treated with retrovirus inhibitors; format: cell-based, human; settings: WS hMPCs, 10 μM lamivudine (3TC), abacavir (0.2 μM), Raltegravir, vs DMSO solvent control
Method: Cells seeded on coverslip (Thermo Fisher Scientific) were washed by PBS, fixed in 4% paraformaldehyde (PFA), permeabilized in 0.4% Triton X-100, blocked by 10% donkey serum. The coverslip was incubated with primary antibody at 4° C. in blocking buffer, then incubated with secondary antibody at room temperature for 1 h. Nucleus was labelled by Hoechst 33342 (Invitrogen).
For treatment by endogenous viral reverse transcriptase inhibitor and integrase inhibitor, hMPCs were treated by […] abacavir, lamivudine (3TC) and Raltegravir, respectively, medium was replaced every 3 days, followed by new treatment. After treatment of two cell passages, cells were used for Ki67 immunofluorescence, SA-β-gal staining and RNA/DNA extraction.
Cells were fixed by a buffer containing 2% (w/v) formaldehyde and 0.2% (w/v) glutaraldehyde for 5 min, and treated by staining buffer containing 1 mg/mL X-gal at 37° C. overnight.
10 μM lamivudine (3TC), abacavir (0.2 μM) and Raltegravir were added to WS hMPC, respectively, incubated at 37° C., and fresh medium containing each drug was replaced every two days, solvents dissolving above-mentioned drug with DMSO added at a corresponding amount were used as control.
Above-mentioned cells were stained by Ki67 and SA-β-gal.

HERVK = HERVK transposition events (reporter, flow cytometry) and DNA copy number in WS hMPC; format: cell-based, human; settings: 10 days after incubation
Method: The experiment for detecting DNA of HERVK gene by single molecule DNA-FISH was conducted by the National Key Laboratory of Agricultural Microbiology, Huazhong Agricultural University. Senescent cells were successively treated by RNase A (100 μg/mL, dissolved in 2×SSC) at 37° C. for 1 h, treated by 70% formamide dissolved in 2×SSC at 72° C. for 10 min, treated by precooled ethanol (concentration from 80%, 90% to 100%, each treatment for 1 min). Then cells were incubated with HERVK […] specific probe pairs (each probe 10 μM) in hybridization solution (10% deionized formamide, 2×SSC, 10% dextran sulfate and 2 mM VRC) at 42° C. overnight. Washed 3 times by washing buffer (2×SSC, 30% formamide, 0.1% Triton-X 100 and 2 mM VRC), cells were incubated with amplification probes (SFSP-001 and SFTP-001, Spatial FISH, Co., Ltd.) and fluorescent probes (SFFP-001, Spatial FISH, Co., Ltd) together, HERVK DNA was subjected to single molecule detection. Finally, cells were counterstained by DAPI and imaged by confocal microscope.
In brief, to assess transposition events occurred in HERVK during aging process, wild type mesenchymal stem cells of early passage and late passage (P7 generation and P14 generation) were transfected with HERVK reporter plasmid, and meanwhile co-transfected with dsRed, a vector expressing red fluorescence (obtained from Xu Xingzhi's Laboratory, School of Basic Medicine, Shenzhen University) to calculate transfection probability. After the confluence of cells, cells were digested into single cell, and resuspended by PBS, analyzed by flow cytometer BD Influx, the ratio of cells positive for green fluorescence to cells positive for red fluorescence was the probability of transposition events occurred in HERVK.
To construct HERVK transposition reporter vector, first, above-mentioned HERVK fragment was cloned to dsRed vector having KpnI enzyme site mutant (obtained from Xu Xingzhi's Laboratory, School of Basic Medicine, Shenzhen University). GFP reporter (SEQ ID NO: 152) was obtained by PCR amplification from L 1 reporter (gifted by Prof. Wang Jichang, Sun Yat-sen University in Guangzhou, China), GFP reporter was inserted to dsRed-HERVK through KpnI site, contructing HERVK transposition reporter vector.
To assess transposition events occurred for HERVK during aging process, cells of early and late generations were transfected with HERVK reporter plasmid, and meanwhile co-transfected with a vector expressing red fluorescence to calculate transfection probability. After confluence of cells, cells were digested into single cell, and resuspended with PBS, analyzed by flow cytometer BD Influx, the ratio of cells positive for green fluorescence to cells positive for red fluorescence was the probability of transposition events occurred in HERVK. […]

old mice [1] = experiment: Abacavir injected to articular cavity of old mice (joint aging); format: in vivo, mouse
Method: 10 μl Abacavir (in PBS with 2% DMSO) at the concentration of 10 mg/ml was injected to knee joint cavities of mice of 22 months old (n=12), injected once a week. Grip strength test was performed 4 weeks, 8 weeks and 12 weeks after the first injection. Motor coordination and balance, motor ability and Micro-CT were performed 14 weeks after the first injection, samples were taken, i.e., joints of mice hind limbs were taken out, one was frozen in liquid nitrogen and the other was fixed in 4% PFA.
(§1) Grip strength of the limbs was measured by Grip strength meter (Panlab Grip Strength Meter, LE902) in accordance with the manufacturer's instructions. In brief, mice were put on the top of grip strength meter and pulled along the grid at a constant rate, until mice loosened its grip. The peak tension in each of the 10 repeats was recorded, and the mean value was calculated as grip strength for each mouse.
Mice were placed on a running machine (SANS Bio Instrument, SA101) to test the motor ability of mice in accordance with the manufacturer's instructions. In particular, slope of runway was set as 5°, electrical stimulation was 2 mA, the running speed was set as follows: an initial velocity of 5 m/min for 5 min; then accelerating to final velocity of 25 m/min with an accelerated rate of 1 m/min 2, 20 mins in total. First, mice were trained for three consecutive days, and tested on the fourth day. The times of electrical stimulation, and the run distance in […] were recorded.
Micro-CT (PE Quantum FX) was performed in accordance with the manufacturer's instructions. In brief, mice were anesthetized and placed in the instrument, scanning parameters for Micro-CT were voltage 50Kvp, power 40 W, 6-frame superposition, field 4 cm×4 cm. Three-dimensional images were screenshot after scan and reconstruction, and bone density was calculated by Ansys software.
5.2. Retrovirus inhibitor Abacavir delayed joint aging of old mice Retrovirus inhibitor Abacavir was injected to articular cavity of old mice (23 months old), concentration was 10 mg/ml, once a week, 10 μl every time (as shown by FIG. 32A). (n=10)

old mice [2] = experiment: Long-term oral administration of Abacavir in drinking water to old mice; format: in vivo, mouse; settings: for mice died: n=23
Method: Abacavir was dissolved in drinking water containing 0.4% DMSO at 2 mg/ml, mice of 18 months old were administered by feeding the water daily (n=23). The weight, hollow back, hair, skin, eye (cataract) and activity score of mice were measured 6 weeks, 12 weeks and 24 weeks after administration, grip strength was measured and a survival curve was plotted. […]
as §1
Mice were placed in the end of any arm of Y maze (trisection radiation maze, consisting of 3 arms with equal length (50 cm×18 cm×35 cm), the intersection angle between every two arms was 120 degree), allowed to explore freely for 5 min, animal behavior changes in 5 min were recorded by camera system, and the short-term spatial memory ability of mice was detected by recording the total times that the mice entered the arms and the rotations that the mice entered in turn the three arms of the Y maze.
Retrovirus inhibitor Abacavir was dissolved in drinking water for mice (containing 0.3% DMSO) at a concentration of 2 mg/ml (n=23), and mice of 18 months old was administered daily (as shown by FIG. 33A).

old mice [3] = experiment: Long-term intraperitoneal injection of Ratelgravir to old mice; format: in vivo, mouse; settings: 16 weeks
Method: Ratelgravir was dissolved at 50 mg/ml in 30% PEG300+2% Tween80+2% DMSO, and intraperitoneally injected to mice at 18 months old, […] each time, twice a week (n=23). The weight, hollow back, hair, skin, cataract and activity score of mice were measured 8 weeks and 16 weeks after first injection, grip strength was measured and a survival curve was plotted.
as §1
The retrovirus integrase inhibitor Ratelgravir was dissolved in 30% PEG300+2% Tween80+2% DMSO at a concentration of 50 mg/ml, mice at 18 months old was injected intraperitoneally, […], 200 μl/injection, twice a week (as shown by FIG. 34A).

[4] = articular cavity injection, P value not significant
[5] = drinking water 2 mg/ml, 24 weeks
[6] = drinking water 2 mg/ml, 30 weeks

Compound: Nc1nc(NC2CC2)c2ncn([C@H]3C=C[C@@H](CO)C3)c2n1 [Abacavir, abacavir]
- Ki67 positive cells (WS hMPC): increase
- SA-β-gal positive cells (WS hMPC): reduce
- Ki67 positive cells (WS hMPC; listed as abacavir): significantly were increased
- SA-β-gal positive cells (WS hMPC; listed as abacavir): significantly were decreased
- HERVK DNA copy number (HERVK): decreases
- HERVK transposition events (HERVK): reduces
- HERVK DNA copy number (HERVK; listed as abacavir): effectively reduce
- HERVK transposition events (HERVK; listed as abacavir): effectively reduce
- bone density of joint (old mice [1]; 15 weeks after injecting): increased
- expression of senescence-associated protein p21 in joint (old mice [1]; RT-qPCR of joint RNA): decreased
- level of inflammatory factor IL1B in joint (old mice [1]; RT-qPCR of joint RNA): decreased
- level of inflammatory factor IL6 in joint (old mice [1]; RT-qPCR of joint RNA): decreased
- forced treadmill running distance (old mice [1]; [4]): improve
- forced treadmill running time (old mice [1]; [4]): improve
- forced treadmill shocked time (old mice [1]; articular cavity injection, trend, P value not significant): reduce
- limb tension of mice (old mice [1]; old mice (23 months old), articular cavity 10 mg/ml, 10 μl once a week, 8 weeks after injecting, vs vehicle): significantly was enhanced
- mice died (old mice [2]; 24 weeks after administering, control group 2 died): 0
- mice died (old mice [2]; 30 weeks after administering, control group 4 died): 1
- spatial short-term memory ability (old mice [2]; Y Maze, 30 weeks): enhanced
- condition of hair (old mice [2]; [5]): improve
- condition of hollow back (old mice [2]; [5]): improve
- mobility ability of mice (old mice [2]; [5]): enhance
- Y Maze rotations that the mice entered in turn the three arms (old mice [2]; [6]): increased
- Y Maze total times that the mice entered the arms (old mice [2]; [6]): increased
- survival rate of old mice (old mice [2]; drinking water 2 mg/ml, up to 30 weeks): improve
- limb tension of mice (old mice [2]; mice of 18 months old, 2 mg/ml in drinking water daily, 12 weeks): significantly enhanced

Compound: Cc1nnc(C(=O)NC(C)(C)c2nc(C(=O)NCc3ccc(F)cc3)c(O)c(=O)n2C)o1 [Raltegravir]
- Ki67 positive cells (WS hMPC): significantly were increased
- SA-β-gal positive cells (WS hMPC): significantly were decreased
- Ki67 positive cells (WS hMPC; listed as Ratelgravir): increase
- SA-β-gal positive cells (WS hMPC; listed as Ratelgravir): reduce
- condition of hair (old mice [3]; i.p. twice a week): improve
- condition of hollow back (old mice [3]; i.p. twice a week): improve
- limb tension of mice (old mice [3]; mice at 18 months old, 50 mg/ml, 200 μl i.p. twice a week, vs vehicle): significantly was increased
